Columns and labels:
AMPK [1] = assay: Phosphorylation of AMPK at Thr172 by western blot; format: cell-based, human; conditions: MRSA-infected HeLa cells
Protocol: (§1) HeLa cells were seeded with 100,000 cells/well in 24-wells plates. In short, the cells were lysed in EBSB buffer (10% v/v glycerol, 3% SDS, 100 mM Tris-HCl, pH 6.8) supplemented with one tablet of cOmplete EDTA-free protease inhibitor cocktail (Sigma-Aldrich) and proteins were denaturated at 95°C for 5 min. Protein concentrations were determined using a Pierce™ BCA protein assay kit (Thermo Fisher Scientific). Samples were diluted in Laemmli sample buffer and loaded on a 15-well 4–20% Mini-PROTEAN® TGX™ Precast Protein Gel for electrophoresis (both from Bio-Rad, Hercules, CA, USA). […] Membranes were blocked for 1h in PBS supplemented with 5% w/v non-fat dry milk. Next, the membranes were cut and each protein was separately stained with primary antibodies against actin and LC3B in PBS supplemented with 5% w/v non-fat dry milk, or against AMPKα and AMPKα-pThr172 in PBS supplemented with 5% BSA (antibodies listed in Supplementary Table S1 ). Membranes were stained with secondary antibodies in PBS supplemented with 5% w/v non-fat dry milk. After each staining, membranes were washed four times in PBS + 0.1% Tween20. Prior to revelation, the membranes were incubated for 10 min in enhanced chemiluminescence (ECL) Prime Western Blotting System reagent (GE Healthcare, Hoevelaken, The Netherlands). […] Protein bands were quantified using Fiji software ([Schindelin et al., 2012]).

AMPK [2] = tested on: AMPK; set-up: method as in Elkins et al., 2016; conditions: ref Elkins et al., 2016; cited from earlier work
LC3 = assay: Autophagosome formation by western blot (LC3-II/LC3-I); format: cell-based, human; conditions: MRSA-infected HeLa cells
Protocol: as §1

EGFR = tested on: EGFR; set-up: method as in Elkins et al., 2016; conditions: PKIS1, Caliper assay, ref Elkins et al., 2016; cited from earlier work
HER2 = tested on: HER2; set-up: method as in Elkins et al., 2016; conditions: PKIS1, Caliper assay, ref Elkins et al., 2016; cited from earlier work

SMILES: COc1ccc2[nH]c3c4[nH]c5ccc(OC)cc5c4c4c(c3c2c1)C(=O)NC4=O [GW296115X]
- AMPK phosphorylation at Thr172 (AMPK [1]): significantly increased AMPK phosphorylation at Thr172
- action on AMPK in a biochemical assay (AMPK [2]): AMPK inhibitor
- accumulation of LC3-II (LC3; in the presence of bafilomycin A1 (100 nM)): strong accumulation of LC3-II
- formation of LC3-II (LC3; without bafilomycin): not affected

SMILES: O=S(=O)(CCNCc1ccc(-c2ccc3ncnc(Nc4ccc(OCc5cccc(F)c5)c(Cl)c4)c3c2)o1)c1ccccc1 [GW633459A]
- % inhibition at 1 µM EGFR (EGFR): 83%
- % inhibition at 1 µM HER2 (HER2): 60%
